# Patent publication US5420132A, “Substituted benzodioxins” (Adir et Compagnie, priority 1993, dated 1995)
# Experiments:
# [1] = tested on: 5-HT2 receptors; test: Serotoninergic activity (competition with [3H]ketanserine); type: binding, rat (male Wistar, cerebral cortex membranes); conditions: 10 μM (n=3); [3H]ketanserine 0.5 nM, 40 min/25° C.
# Description: The experiments are carried out on membranes prepared from the cerebral cortex of male Wistar rats (CERJ, le Genest St Isle). The binding measurements are carded out using ketanserine as reference compound. The conditions of the experiment are summarised below:
# After incubation, the membranes are quickly filtered. The filtrates are then transferred to flasks containing scintillation liquid and the bound radioactivity is determined by a liquid scintillation counter (LS6000, Beckman). The affinity of the compounds of the invention for the 5-HT2 receptors is evaluated, at the concentration 10 μM (n=3), using competition experiments.
# [2] = Hypolipaemic activity in hypercholesterolaemic mice; type: in vivo; conditions: 100 mg/kg p.o.; serum
# Description: Groups each comprising 6 mice are rendered hypercholesterolaemic by a diet that is high in cholesterol and in cholic acid for 7 days. The compounds of the invention are administered p.o. (100 mg/kg) on the 6th and 7th day (half the dose being administered on day 6 and the other half on day 7). The animals are then left without food and drink for one night. The reduction in the concentration of cholesterol in the serum compared with hypercholesterolaemic control mice is then evaluated, as is also the reduction in concentration of lipoproteins (corresponding to the LDL-VLDL fractions), after precipitation by the addition of heparin to the serum, in the same hypercholesterolaemic mice compared with the control animals.
# [3] = tested on: thoracic aorta of rats; test: Anticalcic activity (contraction induced by potassium chloride); parameters: species or system male Wistar rats; conditions: Rattus norvegicus; 60 mM KCl; 2 preparations, 8 concentrations; read-out: IC50, inhibition of thoracic aorta contraction induced by potassium chloride
# Description: The anticalcic activity was studied in the thoracic aorta of male Wistar rats. Once they have been introduced into experimental vessels containing a physiological solution, the vascular rings are subjected to an initial tension of 2 g. The preparations are then placed in the presence of a hyperpotassic solution (60 mM of potassium chloride) in order to obtain a sustained contractile response. Increasing concentrations of the product being tested are then added for the period necessary to obtain a stable effect.
# Each compound of the invention is thus tested in 2 preparations at 8 concentrations (10^-8 M to 3×10^-5 M) to obtain a concentration-effect curve and determine the IC50.
# [4] = tested on: native human LDLs; test: Protective activity against LDL oxidation (electrophoretic method, FPLC, Cu2+ induced); type: biochemical; conditions: 10 μM; with Cu++; 24 hours
# Description: Study of the protective activity against LDL oxidation (electrophoretic method)
# The capacity of the compounds of the invention to decrease the proportions of oxidised LDLs was measured by incubating a preparation comprising native human LDLs, a Cu^2+ free radical generator, and the compounds to be tested for 24 hours. The oxidation products are determined by FPLC (Fast Protein Liquid Chromatography) in accordance with the method described by B. Vedie et al., Journal of Lipid Research, 32, 1359-1369, (1991). By that method it was possible to identify 5 peaks corresponding to different degrees of LDL oxidation. Peaks A and B correspond to the native forms of LDL and peaks C, D and E correspond to the different states of oxidation of the LDLs (peak E corresponding to the most oxidised form). The results are expressed as a percentage of the LDLs corresponding to those different states of oxidation.
# [5] = tested on: Human red blood corpuscles; test: Measurement of haemolysis induced by AAPH; type: cell-based; conditions: Erythrocyte, 0.5 h, 10^-5 M, 30 minutes at 37° C.
# Description: Measurement of haemolysis induced by AAPH
# Human red blood corpuscles are placed for a period of 30 minutes at 37° C. in the presence of AAPH, which generates free radicals at a constant rate, and in the presence or absence of the compounds being studied. The optical density of the supernatant is measured at 403 nm compared with the control without AAPH. The percentage inhibition of haemolysis is calculated by comparison with the 100% haemolysis obtained for the AAPH control.
# [6] = Antihypoxic activity in vivo (time until first gasps); parameters: species or system mice (Swiss CD 1); conditions: 30 minutes before hypoxia, control 36 ± 4
# Description: Male mice (Swiss CD 1 ) weighing from 25 to 30 g are, before any experiment, housed for one week under conditions customary for animals (20°-22° C., 55% humidity, light/darkness cycle 12/12, commercial feed and water as desired). The mice are placed in a box (7×5×5 cm) in which an atmosphere poor in oxygen is created by passing through a stream of air (96% N2, 4% O2, 12 l/min). The time taken until the first signs of suffocation (or "gasps") occur is measured. The mice receive a dose of the compounds to be tested by the intraperitoneal route 30 minutes before the hypoxia is induced. Vincamine is used as the reference drug.
# [7] = tested on: lipoxygenase; test: Measurement of lipoxygenase activities (B4 leukotriene release, calcium ionophore A 23 187); type: cell-based; conditions: 10 μM; rabbit granulocytes; average of 3
# Description: Measurement of lipoxygenase activities The measurements are carried out on rabbit granulocytes. The isolated granulocytes are stimulated in vitro by the calcium ionophore A 23 187. The B4 leukotrienes released in the extracellular medium are measured by Radio Immuno Assay (RIA). The results (average of 3 independent measurements) are expressed as a percentage inhibition compared with the control.
# [8] = tested on: platelet aggregation (rabbit plasma rich in platelets); test: Measurement of antiaggregation activity (sodium arachidonate induced); type: cell-based; conditions: Oryctolagus cuniculus, sodium arachidonate (50 μ/ml), read-out: Minimum active concentration, inhibition of maximum non-reversible platelet aggregation
# Description: Measurement of antiaggregation activity
# In that study, the compounds of the invention (100 μ/ml) were tested with the aim of quantifying their ability to inhibit the maximum non-reversible platelet aggregation (rabbit plasma rich in platelets) induced by sodium arachidonate (50 μ/ml). Thus the minimum active concentration for the compound of Example 1 is 20 μM.
smiles,measurement,setting,value
"Oc1ccc2c(c1)OC=C(CN1CCN(C(c3ccc(F)cc3)c3ccc(F)cc3)CC1)O2 [Example 58, 6-HYDROXY-2-{4-[BIS-(4-FLUOROPHENYL)METHYL]PIPERAZIN-1- YLMETHYL}-1,4-BENZODIOXIN]","Inhibiting activity, 5-HT2 receptor binding",[1],79%
same,Reduction in the LDL-VLDL fraction,[2],35%
same,Reduction in the total cholesterol,[2],33%
same,IC50,[3],600 nM
"CC(C)(Sc1cc(C(C)(C)C)c(O)c(C(C)(C)C)c1)Sc1cc(C(C)(C)C)c(O)c(C(C)(C)C)c1 [probucol, reference compound]","LDL oxidised form D separated by FPLC, percentage of LDLs",[4],80%
same,"LDL oxidised form E (most oxidised) separated by FPLC, percentage of LDLs",[4],20%
"O=C(Nc1ccccc1)C1COc2cc(O)ccc2O1 (centres unmarked) [Example 11, 6-HYDROXY-2-ANILINOCARBONYL-2,3-DIHYDRO-1,4-BENZODIOXIN]",inhibition at 10 µM,[5],100%
"O=C(Nc1ccccc1)C1COc2ccc(O)cc2O1 (centres unmarked) [Example 12, 7-HYDROXY-2-ANILINOCARBONYL-2,3-DIHYDRO-1,4-BENZOP DIOXIN]",inhibition at 10 µM,[5],100%
"O=C(Nc1ccccc1)C1=COc2cc(O)ccc2O1 [Example 10, 6-HYDROXY-2-ANILINOCARBONYL-1,4-BENZODIOXIN]",inhibition at 10 µM,[5],100%
same,Time until the first gasps occur,"[6]; 2,5 mg/kg i.p.",97 s
"O=C(C1=COc2cc(O)ccc2O1)N1CCN(C(c2ccc(F)cc2)c2ccc(F)cc2)CC1 [Example 1, 6-HYDROXY-2-{4-[BIS(4-FLUOROPHENYL)METHYL]PIPERAZIN-1-YLCARBONYL}-1,4-BENZODIOXIN]",inhibition at 10 µM,[5],62%
same,Inhibiting activity (B4 leukotriene release),[7],62%
same,"LDL form B separated by FPLC (native form), percentage of LDLs",[4],95%
same,"LDL oxidised form C separated by FPLC, percentage of LDLs",[4],5%
same,Time until the first gasps occur,"[6]; 2,5 mg/kg i.p.",108 s
same,minimal effective concentration,[8],20 µM
same,IC50,[3],500 nM
"O=C(Nc1ccccc1)C1=COc2ccc(O)cc2O1 [Example 13, 7-HYDROXY-2-ANILINOCARBONYL-1,4-BENZODIOXIN]",inhibition at 10 µM,[5],100%
"O=C(C1=COc2ccc(O)cc2O1)N1CCN(C(c2ccc(F)cc2)c2ccc(F)cc2)CC1 [Example 2, 7-HYDROXY-2-{4-[BIS(4-FLUOROPHENYL)METHYL]PIPERAZIN-1-YLCARBONYL}-1,4-BENZODIOXIN]",inhibition at 10 µM,[5],100%
"O=C(C1COc2cc(O)ccc2O1)N1CCN(C(c2ccc(F)cc2)c2ccc(F)cc2)CC1 (centres unmarked) [Example 3, 6-HYDROXY-2-{4-[BIS(4-FLUOROPHENYL)METHYL]PIPERAZIN -1-YLCARBONYL}-2,3-DIHYDRO-1,4-BENZODIOXIN]",inhibition at 10 µM,[5],88%
"COc1ccc(CN2CCN(C(=O)C3COc4ccc(O)cc4O3)CC2)c(OC)c1OC (centres unmarked) [Example 17, 7-HYDROXY-2-[4-(2,3,4-TRIMETHOXYBENZYL)PIPERAZIN-1-YLCARBONYL]-2,3-DIHYDRO- 1,4-BENZODIOXIN]",inhibition at 10 µM,[5],100%
"CC[C@]12CCCN3CCc4c(n(c5ccccc45)[C@@](O)(C(=O)OC)C1)[C@@H]32 [Vincamine, reference compound]",Time until the first gasps occur,[6]; 20 mg/kg i.p.,147 ± 14 s
same,Time until the first gasps occur,"[6]; 2,5 mg/kg i.p.",inactive
